In this experiment the test system is primary progressive EAE (PP-EAE) in C57BL/6 female mice. The experiment can be described thus: MOG 35-55 induced primary progressive EAE (PP-EAE) in mice: clinical score, body weight, survival. To be noted: for Body weight compared with untreated control (FIG. 2): P<0.05.
The mark [1] stands for this setting: C57BL/6 mice, PP-EAE, GA Depot 4 mg IM Day 0, 1, Copaxone 2 mg SC Days 0-8, N = 20/group, +/- standard error.
[2] abbreviates: C57BL/6 mice, PP-EAE, GA Depot 4 mg IM Day 0, 1, Copaxone 2 mg SC Days 0-8, N = 20/group, +/- standard error, listed as Copaxone®.

Description: Animals were given food and water ad-libitum throughout the experiment. […] A 21G needle was used for injections in mice. […] Measurements: Body weight was measured every two days from day 0 to day 28. EAE was assessed by clinical scoring of the mice once daily from Day 0 to Day 28 post immunization (Table 2). For analysis, dead animals received clinical score of 5 and the weight recorded at the last measurement before animal death.
The following calculations were derived from clinical score raw data: mean maximum score is the mean of the highest scores noted for each mouse in a specific group up to indicated day of analysis; mean disease duration and mean day of onset were calculated as follows: Mean Disease Duration=Sum of (day of analysis−day of disease onset for each mouse)/(number of mice per group); Mean Day of Onset=(sum of day of disease onset of each mouse)/(number of mice per group). Area under the curve (AUC) of clinical score was calculated using Microsoft Excel and represents disease burden.
Glatiramer Acetate Depot (GA Depot): GA Depot was suspended in water for injection (WFI) and immediately injected intramuscularly (IM) at the indicated dose. Dose of GA Depot are given according to amount of active ingredient (i.e. GA Depot 4 mg contains 4 mg GA).
Statistical analysis: Data was analyzed using Microsoft Excel. Each data set was analyzed using single-factor analysis of variance (ANOVA) followed by one tailed student's T-test.

Take glatiramer acetate [Copaxone ®]: the “Survival Rate at Day 28” value (C57BL/6 mice, PP-EAE, GA Depot 4 mg IM Day 0, 1, Copaxone 2 mg SC Days 0-8, N = 20/group) turned out to be 90%. Under setting [1], the “AUC Clinical Score” value is recorded as 26.83 ± 2.49, the “Mean Day of Onset” value is listed as 12.35 ± 0.23 and the “Mean Disease Duration” value stood at 15.65 ± 0.23. Moreover, under setting [2], the “AUC Clinical Score” value is “significantly reduced”, the “Mean Day of Onset” value is “significantly reduced” and the “Mean Disease Duration” value is given as “significantly reduced”. Further, the “Maximum Mean Disease Score” value (C57BL/6 mice, PP-EAE, GA Depot 4 mg IM Day 0, 1, Copaxone 2 mg SC Days 0-8, score 0-5, N = 20/group, +/- standard error) is 2.25 ± 0.22. Further, the “Body weight compared with untreated control (FIG. 2)” value (day 21) is “significantly higher”. For the setting “days 10 to 17 following immunization”, the “Body weight compared with untreated control (FIG. 2)” value is on record as “significantly higher”. Further, the “mean clinical score compared with saline group (FIG. 1)” value (days 11-19 and day 20, p<0.05, GA Depot 4 mg, Copaxone 2 mg days 0-8) is on record as “mean clinical score of the saline group was significantly higher”.

The values are drawn from patent US12343371B2, “Method for suppressing or alleviating primary or secondary progressive multiple sclerosis (PPMS or SPMS) using a sustained release depot formulation comprising glatiramer acetate” (MAPI PHARMA LTD., priority 2017, dated 2025).
